Data as given in the supplement of paper PMC10307832.

Key:
Test in all cases: relative viability (nuclei count vs DMSO), 5 days (fraction); higher = more cells survive
Cediranib = compound: COc1cc2c(Oc3ccc4[nH]c(C)cc4c3F)ncnc2cc1OCCCN1CCCC1 [Cediranib]
Summary of the method: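 For viability, nuclei in each treated well were divided by nuclei in vehicle wells and the median across plates was taken. Lung cancer cell lines in 1536-well plates were pinned with five library-drug doses (not always all listed) spaced by √10, cultured 5 days without medium change, and imaged at 4× after Hoechst staining, with plates passing only at control CV below 25% and at least one doubling.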

Halofuginone + AZD7762 = compound: O=C(C[C@H]1NCCC[C@@H]1O)Cn1cnc2cc(Br)c(Cl)cc2c1=O (racemic) [Halofuginone] + NC(=O)Nc1cc(-c2cccc(F)c2)sc1C(=O)N[C@H]1CCCNC1 [AZD7762] (partner 0.2 µM)
Summary of the method: (§1)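 For relative viability, nuclei counts in treated wells were divided by those in vehicle wells. Lung cancer cell lines had been pin-tool dosed in 1536-well plates the day after seeding and cultured for 5 days, then fixed and stained in one step (final 0.05% Triton X-100, 1% formaldehyde, 1 ug/ml Hoechst) and imaged at 4×. Doses were one drug alone or a fixed anchor-drug dose plus five library-drug doses (not always all listed) in √10 steps, and values are duplicate-plate medians.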

Decitabine + Linsitinib = compound: Nc1ncn([C@H]2C[C@H](O)[C@@H](CO)O2)c(=O)n1 [Decitabine] + C[C@]1(O)C[C@@H](c2nc(-c3ccc4ccc(-c5ccccc5)nc4c3)c3c(N)nccn32)C1 [Linsitinib] (partner 1 µM)
Summary of the method: as §1

Decitabine + Pictilisib = compound: Nc1ncn([C@H]2C[C@H](O)[C@@H](CO)O2)c(=O)n1 [Decitabine] + CS(=O)(=O)N1CCN(Cc2cc3nc(-c4cccc5[nH]ncc45)nc(N4CCOCC4)c3s2)CC1 [Pictilisib] (partner 1 µM)
Summary of the method: as §1

ABC-1
relative viability (Cediranib; 0.04 µM): 0.995 | relative viability (Cediranib; 0.1265 µM): 1.11 | relative viability (Cediranib; 0.4 µM): 0.851 | relative viability (Cediranib; 1.265 µM): 0.759 | relative viability (Cediranib; 4 µM): 0.92 | relative viability (Halofuginone + AZD7762; first compound 0.003162 µM): 0.728 | relative viability (Halofuginone + AZD7762; first compound 0.01 µM): 0.689 | relative viability (Halofuginone + AZD7762; first compound 0.03162 µM): 0.832 | relative viability (Halofuginone + AZD7762; first compound 0.1 µM): 0.775 | relative viability (Decitabine + Linsitinib; first compound 0.04 µM): 0.705 | relative viability (Decitabine + Linsitinib; first compound 0.1265 µM): 0.677 | relative viability (Decitabine + Linsitinib; first compound 0.4 µM): 0.639 | relative viability (Decitabine + Linsitinib; first compound 1.265 µM): 0.611 | relative viability (Decitabine + Linsitinib; first compound 4 µM): 0.523 | relative viability (Decitabine + Pictilisib; first compound 0.04 µM): 0.812 | relative viability (Decitabine + Pictilisib; first compound 0.1265 µM): 0.728 | relative viability (Decitabine + Pictilisib; first compound 0.4 µM): 0.812 | relative viability (Decitabine + Pictilisib; first compound 1.265 µM): 0.443 | relative viability (Decitabine + Pictilisib; first compound 4 µM): 0.505

NCI-H2126
relative viability (Cediranib; 0.04 µM): 0.971 | relative viability (Cediranib; 0.1265 µM): 0.987 | relative viability (Cediranib; 0.4 µM): 0.955 | relative viability (Cediranib; 1.265 µM): 0.809 | relative viability (Cediranib; 4 µM): 0.957 | relative viability (Halofuginone + AZD7762; first compound 0.001 µM): 1.02 | relative viability (Halofuginone + AZD7762; first compound 0.003162 µM): 0.976 | relative viability (Halofuginone + AZD7762; first compound 0.01 µM): 1.01 | relative viability (Halofuginone + AZD7762; first compound 0.03162 µM): 0.889 | relative viability (Halofuginone + AZD7762; first compound 0.1 µM): 0.995 | relative viability (Decitabine + Linsitinib; first compound 0.04 µM): 0.698 | relative viability (Decitabine + Linsitinib; first compound 0.1265 µM): 0.677 | relative viability (Decitabine + Linsitinib; first compound 0.4 µM): 0.591 | relative viability (Decitabine + Linsitinib; first compound 1.265 µM): 0.533 | relative viability (Decitabine + Linsitinib; first compound 4 µM): 0.489 | relative viability (Decitabine + Pictilisib; first compound 0.04 µM): 0.517 | relative viability (Decitabine + Pictilisib; first compound 0.1265 µM): 0.543 | relative viability (Decitabine + Pictilisib; first compound 0.4 µM): 0.463 | relative viability (Decitabine + Pictilisib; first compound 1.265 µM): 0.39 | relative viability (Decitabine + Pictilisib; first compound 4 µM): 0.438

RERF-LC-KJ
relative viability (Cediranib; 0.04 µM): 1.01 | relative viability (Cediranib; 0.1265 µM): 0.862 | relative viability (Cediranib; 0.4 µM): 0.946 | relative viability (Cediranib; 1.265 µM): 0.963 | relative viability (Cediranib; 4 µM): 1.05 | relative viability (Halofuginone + AZD7762; first compound 0.001 µM): 1.1 | relative viability (Halofuginone + AZD7762; first compound 0.003162 µM): 1.15 | relative viability (Halofuginone + AZD7762; first compound 0.01 µM): 1.05 | relative viability (Halofuginone + AZD7762; first compound 0.03162 µM): 0.96 | relative viability (Halofuginone + AZD7762; first compound 0.1 µM): 0.956 | relative viability (Decitabine + Linsitinib; first compound 0.04 µM): 0.836 | relative viability (Decitabine + Linsitinib; first compound 0.1265 µM): 0.763 | relative viability (Decitabine + Linsitinib; first compound 0.4 µM): 0.239 | relative viability (Decitabine + Linsitinib; first compound 1.265 µM): 0.677 | relative viability (Decitabine + Linsitinib; first compound 4 µM): 0.637 | relative viability (Decitabine + Pictilisib; first compound 0.04 µM): 0.508 | relative viability (Decitabine + Pictilisib; first compound 0.1265 µM): 0.607 | relative viability (Decitabine + Pictilisib; first compound 0.4 µM): 0.403 | relative viability (Decitabine + Pictilisib; first compound 1.265 µM): 0.368 | relative viability (Decitabine + Pictilisib; first compound 4 µM): 0.354

NCI-H1666
relative viability (Cediranib; 0.04 µM): 1.02 | relative viability (Cediranib; 0.1265 µM): 1.18 | relative viability (Cediranib; 0.4 µM): 0.989 | relative viability (Cediranib; 1.265 µM): 1.01 | relative viability (Cediranib; 4 µM): 1.02 | relative viability (Halofuginone + AZD7762; first compound 0.001 µM): 0.811 | relative viability (Halofuginone + AZD7762; first compound 0.003162 µM): 0.711 | relative viability (Halofuginone + AZD7762; first compound 0.01 µM): 0.84 | relative viability (Halofuginone + AZD7762; first compound 0.03162 µM): 0.841 | relative viability (Halofuginone + AZD7762; first compound 0.1 µM): 0.956 | relative viability (Decitabine + Linsitinib; first compound 0.04 µM): 0.816 | relative viability (Decitabine + Linsitinib; first compound 0.1265 µM): 0.706 | relative viability (Decitabine + Linsitinib; first compound 0.4 µM): 0.672 | relative viability (Decitabine + Linsitinib; first compound 1.265 µM): 0.629 | relative viability (Decitabine + Linsitinib; first compound 4 µM): 0.689 | relative viability (Decitabine + Pictilisib; first compound 0.04 µM): 0.458 | relative viability (Decitabine + Pictilisib; first compound 0.1265 µM): 0.478 | relative viability (Decitabine + Pictilisib; first compound 0.4 µM): 0.387 | relative viability (Decitabine + Pictilisib; first compound 1.265 µM): 0.319 | relative viability (Decitabine + Pictilisib; first compound 4 µM): 0.372

PC-14
relative viability (Cediranib; 0.04 µM): 1.06 | relative viability (Cediranib; 0.1265 µM): 1.08 | relative viability (Cediranib; 0.4 µM): 0.959 | relative viability (Cediranib; 1.265 µM): 0.931 | relative viability (Cediranib; 4 µM): 0.998 | relative viability (Halofuginone + AZD7762; first compound 0.001 µM): 0.435 | relative viability (Halofuginone + AZD7762; first compound 0.003162 µM): 0.409 | relative viability (Halofuginone + AZD7762; first compound 0.01 µM): 0.381 | relative viability (Halofuginone + AZD7762; first compound 0.03162 µM): 0.366 | relative viability (Halofuginone + AZD7762; first compound 0.1 µM): 0.198 | relative viability (Decitabine + Linsitinib; first compound 0.1265 µM): 0.784 | relative viability (Decitabine + Linsitinib; first compound 0.4 µM): 0.268 | relative viability (Decitabine + Linsitinib; first compound 1.265 µM): 0.283 | relative viability (Decitabine + Linsitinib; first compound 4 µM): 0.23 | relative viability (Decitabine + Pictilisib; first compound 0.04 µM): 0.0668 | relative viability (Decitabine + Pictilisib; first compound 0.1265 µM): 0.749 | relative viability (Decitabine + Pictilisib; first compound 0.4 µM): 0.348 | relative viability (Decitabine + Pictilisib; first compound 1.265 µM): 0.28 | relative viability (Decitabine + Pictilisib; first compound 4 µM): 0.11

NCI-H1915
relative viability (Cediranib; 0.04 µM): 0.969 | relative viability (Cediranib; 0.1265 µM): 0.832 | relative viability (Cediranib; 0.4 µM): 0.96 | relative viability (Cediranib; 1.265 µM): 1.04 | relative viability (Cediranib; 4 µM): 0.996 | relative viability (Halofuginone + AZD7762; first compound 0.001 µM): 0.7 | relative viability (Halofuginone + AZD7762; first compound 0.003162 µM): 0.682 | relative viability (Halofuginone + AZD7762; first compound 0.01 µM): 0.736 | relative viability (Halofuginone + AZD7762; first compound 0.03162 µM): 0.656 | relative viability (Halofuginone + AZD7762; first compound 0.1 µM): 0.68 | relative viability (Decitabine + Linsitinib; first compound 0.04 µM): 0.586 | relative viability (Decitabine + Linsitinib; first compound 0.1265 µM): 0.396 | relative viability (Decitabine + Linsitinib; first compound 0.4 µM): 0.353 | relative viability (Decitabine + Linsitinib; first compound 1.265 µM): 0.286 | relative viability (Decitabine + Linsitinib; first compound 4 µM): 0.276 | relative viability (Decitabine + Pictilisib; first compound 0.04 µM): 0.814 | relative viability (Decitabine + Pictilisib; first compound 0.1265 µM): 0.662 | relative viability (Decitabine + Pictilisib; first compound 0.4 µM): 0.387 | relative viability (Decitabine + Pictilisib; first compound 1.265 µM): 0.295 | relative viability (Decitabine + Pictilisib; first compound 4 µM): 0.304

NCI-H2170
relative viability (Cediranib; 0.04 µM): 1 | relative viability (Cediranib; 0.1265 µM): 0.764 | relative viability (Cediranib; 0.4 µM): 0.983 | relative viability (Cediranib; 1.265 µM): 0.828 | relative viability (Cediranib; 4 µM): 1.03 | relative viability (Halofuginone + AZD7762; first compound 0.001 µM): 0.929 | relative viability (Halofuginone + AZD7762; first compound 0.003162 µM): 0.935 | relative viability (Halofuginone + AZD7762; first compound 0.01 µM): 0.875 | relative viability (Halofuginone + AZD7762; first compound 0.03162 µM): 0.886 | relative viability (Halofuginone + AZD7762; first compound 0.1 µM): 0.866 | relative viability (Decitabine + Pictilisib; first compound 0.04 µM): 0.256 | relative viability (Decitabine + Pictilisib; first compound 0.1265 µM): 0.254 | relative viability (Decitabine + Pictilisib; first compound 0.4 µM): 0.312 | relative viability (Decitabine + Pictilisib; first compound 1.265 µM): 0.285 | relative viability (Decitabine + Pictilisib; first compound 4 µM): 0.269

NCI-H1648
relative viability (Cediranib; 0.04 µM): 0.627 | relative viability (Cediranib; 0.1265 µM): 0.423 | relative viability (Cediranib; 0.4 µM): 0.71 | relative viability (Cediranib; 1.265 µM): 0.773 | relative viability (Cediranib; 4 µM): 0.791 | relative viability (Halofuginone + AZD7762; first compound 0.001 µM): 0.742 | relative viability (Halofuginone + AZD7762; first compound 0.003162 µM): 0.608 | relative viability (Halofuginone + AZD7762; first compound 0.01 µM): 0.631 | relative viability (Halofuginone + AZD7762; first compound 0.03162 µM): 0.854 | relative viability (Halofuginone + AZD7762; first compound 0.1 µM): 0.694
